Counter-ions that a name gives are not always drawn.
Target: T1, human GnRH receptors (Homo sapiens, UniProt P30968)
T1 construct: expressed in transfected cells; host or cells: CHO (Chinese hamster ovary) cells, membrane fraction
T1 sequence (P30968 1-328): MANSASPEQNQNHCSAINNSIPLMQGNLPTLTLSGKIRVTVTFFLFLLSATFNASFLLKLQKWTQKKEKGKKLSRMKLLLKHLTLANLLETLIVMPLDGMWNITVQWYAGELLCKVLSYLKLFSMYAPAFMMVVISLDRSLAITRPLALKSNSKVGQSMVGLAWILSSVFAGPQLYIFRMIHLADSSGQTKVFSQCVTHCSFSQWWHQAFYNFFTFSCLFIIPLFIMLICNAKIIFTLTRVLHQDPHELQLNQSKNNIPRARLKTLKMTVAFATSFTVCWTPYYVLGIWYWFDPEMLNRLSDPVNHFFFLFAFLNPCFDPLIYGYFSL
Assay: 125I-leuprolerin GnRH receptor binding inhibition test, human (CHO cell membrane fraction)
Conditions: human GnRH receptors expressed in CHO cells, 25° C., 60 minutes, read-out: Binding inhibitory activity (IC50 μM) Human
Procedure: Ten (10) μl of 3×10^4 M aqueous leuprolerin solution and 10 μl of 0.01 mg/ml lactoperoxidase were taken in a tube and 10 μl of Na^125 I solution (37 MBq) was added. After stirring, 10 μl of 0.001% H2 O2 was added and the reaction was conducted at room temperature for 20 minutes. Then, 700 μl of 0.05% TFA solution was added to the tube to terminate the reaction and the reaction mixture was purified by reverse-phase HPLC. The HPLC conditions are shown below. ^125 I-leuprolerin was eluted after a retention time of 26-27 minutes. (D) Preparation of a CHO (Chinese Hamster Ovarian) Cell Membrane Fraction Containing Human GnRH Receptors […] To the cell pellet was added 10 ml of cell homogenate buffer (10 mM NaHCO3, 5 mM EDTA, pH 7.5) and the mixture was homogenized using a Polytron homogenizer. The homogenate was centrifuged at 400×G for 15 minutes. The supernatant was taken in an ultracentrifuge tube and centrifuged at 100,000×G for 1 hour to provide a membrane fraction pellet. […] After filtration, the radioactivity of ^125 I-leuprolerin remaining on the filter was measured with a γ-counter. The expression (TB-SB)/(TB-NSB)×100 (where SB=radioactivity with the compound added, TB=maximum bound radioactivity, NSB=nonspecifically bound radioactivity) was calculated to find the binding inhibition rate of each test compound.

| Structure (SMILES) | IC50 |
| --- | --- |
| COC(=O)c1cccc(CNCCCC2(c3ccccc3)COCc3ccccc32)c1 (stereo not drawn) [Example I-45, Methyl α-[3-(4-Phenylisochroman-4-yl)propylamino]-m-toluate hydrochloride] | 6 µM |
| COc1cc2c(cc1OC)CC1(CCCCN1CCCCC1(c3ccccc3)COCc3ccccc31)CC2 (centres unmarked) [Example I-52, 3,4-Dihydro-6,7-dimethoxy-1'-[4-(4-phenylisochroman-4-yl)butyl]spiro[naphthalene-2(1H),2'-piperidine] hydrochloride] | 6 µM |

Source: US5654296A, “Condensed heterocyclic compounds, their production and use” (priority 1994, dated 1997)
